Reference: patent US8143282B2, “Heterocyclic compounds” (S*BIO Pte Ltd., priority 2005, dated 2012)

Assays:
[1] = tested on: Colo205 cells; experiment: Cell-based proliferation assay for GI50 (CyQUANT), Colo205; conditions: Homo sapiens, COLO 205, 96 h treatment, read-out: Cellular or Growth Inhibition Activity in Colo205 cells, GI50
Summary of the method: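 Cells were seeded at 1000 (PC3), 5000 (Colo205), 6000 (HCT116) or 4000 (HEP3B) per well and left 24 h at 37° C. Compound treatment lasted 96 h. Growth was read by CyQUANT, and GI50 (50% growth inhibition) came from dose-response curves.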

[2] = tested on: PC3; experiment: Cell-based proliferation assay for GI50 (CyQUANT), PC3; conditions: Homo sapiens, PC-3; PC3, 96 h treatment; read-out: Cellular or Growth Inhibition Activity, GI50, PC3
Experimental: (§1) Human colon cancer cell lines (Colo205, HCT116), Ovarian cancer cell line (A2780), Hepatoma cell line (HEP3B), Prostate cancer cell line (PC3) were obtained from ATCC or ECACC. Colo205 cells were cultivated in RPMI 1640 containing 2 mM L-Glutamine, 5% FBS, 1.0 mM Na Pyruvate, 1 U/ml of penicillin and 1 μg of streptomycin. HCT116 cells were cultivated in McCoy's containing RPMI 1640 containing 2 mM L-Glutamine, 5% FBS, 1 U/ml of penicillin and 1 μg of streptomycin. A2780 cells were cultivated in RPMI 1640 containing 2 mM L-Glutamine, 5% FBS, 1 U/ml of penicillin and 1 μg of streptomycin. HEP3B cells were cultivated in EMEM containing 2 mM L-glutamine, 5% FBS, 1% non essential amino acid, 1 mM Na Pyruvate, 1 U/ml of penicillin and 1 μg of streptomycin. PC3 cells were cultivated in F12K, 2 mM L-glutamine, 5% FBS, 1 U/ml of penicillin and 1 μg of streptomycin. PC3, Colo205, and HCT116 cells were seeded in 96-wells plate at 1000, 5000 and 6000 cells per well respectively. A2780 and HEP3B cells were seeded in 96-wells plate at 4000 cells per well respectively. The plates were incubated at 37° C., 5% CO2, for 24 h. Cells were treated with compounds at various concentrations for 96 h. Cell growth was then monitored using CyQUANT® cell proliferation assay (Invitrogen Pte Ltd). Dose response curves were plotted to determine GI50 values for the compounds using XL-fit (ID Business Solution, Emeryville, Calif.). GI50 is defined as the concentration of compound required for 50% inhibition of cell growth.

[3] = tested on: HCT116; experiment: Cell-based proliferation assay for GI50 (CyQUANT), HCT116; conditions: Homo sapiens, HCT-116; HCT116, 96 h treatment; read-out: Cellular or Growth Inhibition Activity, GI50, HCT116
Experimental: as §1

[4] = Measurement of microsomal stability; type: in vitro ADME; conditions: pooled human liver microsomes, pH 7.4; human liver microsome, 5 μM test compound, 1.0 mg/ml microsomal protein
[5] = In vivo pharmacokinetic (PK) studies; conditions: mouse, plasma, po; mice, hydrochloric acid salt form (2HCl), 50 mg/kg
Experimental: Compound was dissolved in appropriate solution (saline or DMA and Cremaphor in saline) at 1 mg/ml for intravenous (IV) administration, or in 0.5% methyl cellulose, 0.1% Tween 80 in water at 5 mg/ml for oral administration. Mice were randomized according to body weight, grouped three per time point. Mice were administered single IV dose (10 mg/kg) via tail vein, or single oral dose (50 mg/kg) via gavage. At pre-defined time points (predose, 5 or 10, 30 min, 1, 2, 4, 8, and 24 h), one group of mice was sacrificed by overdose CO2 and blood samples were collected by cardiac puncture. The blood samples were centrifuged immediately for 10 min at 3000 rpm to separate plasma, and plasma was kept frozen at −80° C. until analysis by LC/MS/MS. Before sample analysis, the method was developed for LC/MS/MS assay. The method was validated for signal-response of the calibration standards, auto-sampler stability for ˜15 hours intra-day and inter-day calibration curve using eight calibration standards excluding the blank plasma. QC samples at three different concentrations in triplicates were prepared to determine the accuracy and precision. The extracted QC samples were compared to unextracted samples to determine the extraction efficiency of the analyte. LLOQ was determined by using triplicate samples of 1 ng/mL and 2 ng/mL to obtain accuracy and precision at the low end. Samples were analysed using the validated method. Data was analyzed by the non-compartmental model using WinNolin 4.0 software (Pharsight, Mountain View, Calif., USA). The mean values for the plasma compound concentration-time profiles were used in mouse PK study.
The PK parameter AUC0-last providing the information on the overall exposure of the drug in vivo is one of the key PK/PD parameters that helps in predicting the efficacy of an anti-cancer compound. The higher the AUC value, the better will be the in vivo efficacy of the compound at similar in vitro potency.

CCCc1nc2cc(/C=C/C(=O)NO)ccc2n1CCNCCC(C)(C)C [Compound 130, 3-{1-[2-(3,3-Dimethyl-butylamino)-ethyl]-2-propyl-1H-benzoimidazol-5-yl}-N-hydroxy-acrylamide]
GI50 [1]: 150 nM | GI50 [2]: < 500 nM | GI50 [3]: < 500 nM | half-life at 5 μM [4]: > 30 min | AUC(0-t) [5]: 1050 ng·h/mL
